Assay results published in US6949506B2, “Relaxin-like factor and methods and uses thereof” (BAS Medical, Inc., priority 1995, dated 2005).
Entries after “also recorded” stand apart in the source; their conditions may differ. Positions of bridges follow the written chain, without caps; N, C: chain ends. Chains are numbered I, II in the order given. No end group written: not given here.

Key:
washed human sperm = assay: Sperm motility assay; format: cell-based; conditions: 10 and 100 ng/ml
Source text: Materials And Methods. Semen is obtained by masturbation from healthy volunteers. The sample is allowed to liquefy at room temperature and is then mixed with Minimum Essential Medium (MEM) with Hepes buffer added. This medium is used because it coincides with that washing medium employed by the in vitro clinic at MUSC. The sperm is then separated from the seminal fluid and MEM by centrifugation. The resultant sperm pellet is then resuspended in MEM at room temperature. Aliquots are then place in siliconized centrifuge tubes and one of several compounds added: l)human relaxin 10 ng/ml, 2)human relaxin 100 ng/ml, 3)relaxin-like factor 10 ng/ml, 4)relaxin-like factor 100 ng/ml, 5)one fraction of alkaline gland fluid from stingrays diluted 1:8 with pentoxyfyline. The additive is mixed well with the sperm/medium mixture. Samples are taken at 0, 2, 4, 6 and 24 hour intervals for automated determination of the following parameters: 1)motility, 2)progressivity, 3)path velocity, 4)progressive velocity, 5)track speed, 6)elongation, 7)lateral displacement, 8)cross beat frequency, 9)straightness, 10)linearity. Briefly described, each sample is loaded into a Maker heated specimen chamber and viewed in a light microscope equipped with laser doppler optics (IVOS, Beverly, Mass.).

[1] = test system: procollagenase expression, rheumatoid synovial fibroblasts (Strain No. RSF112); assay: Stimulation of procollagenase expression by synovial fibroblasts (gelatin zymography); format: cell-based, human
Source text: A method for detecting and measuring procollagenase formation is described in Unemori, et al., 1991, J. Biol. Chem. 266:23477-482. Such method was modified to measure the expression of procollagenase in the presence of RLF as follows: Materials And Methods. Rheumatoid synovial fibroblasts (Strain No. […] Conditioned media were collected and an aliquot analyzed by gelatin zymography. Procollagenase was identified as a […] doublet at 52/57 kDa. The intensity of the doublet (i.e., the amount of procollagenase expressed, was quantified by scanning densitometry.

[2] = test system: collagen expression, rheumatoid synovial fibroblasts (Strain No. RSF64); assay: Inhibition of collagen expression by synovial fibroblasts; format: cell-based, human; conditions: 100 ng/ml (each); TGF-β-treated fibroblasts
Protocol: The method for detecting and measuring collagen formation in the presence of relaxin described in Unemori and Amento, 1990, J. Biol. Chem. 265:10681-685 has been modified as follows to determine the ability of RLF, in vitro, to modulate the expression of collagen. Materials and Methods. Rheumatoid synovial fibroblasts (Strain No. […] The cells were simultaneously biosynthetically labelled with ^3H=[…] μCi/ml) in the presence of ascorbate and BAPN. After 24 hours, the conditioned media were collected and electrophoresed on 4-12% polyacrylamide gels (NOVEX) under reducing conditions. Gels were enhanced, dried, and exposed to X-ray films for 1-2 weeks. Collagen bands were identified on the X-ray films as bacterial collagenase-sensitive, proline-incorporating bands between 95-200 kDa. Band density was quantified by scanning densitometry and used as estimates of collagen expression.

RLF receptor (brain) = molecular target: T1, RLF receptor (brain) (Mus musculus, UniProt Q91ZZ5); assay: Binding assay, mouse brain crude membranes, hRLF tracer
T1 construct: from tissue; host or cells: mouse brain, crude membranes
Protocol: (§1) Relaxin-binding assays were performed as described in Yang, et al., 1992, Endocrinology 130:179-185 and Büllesbach, et al., 1994, Endocrine. 2:1115-1120, using crude membrane preparations of mouse tissue. Mouse brains of 2 mice were collected into 15 ml of chilled buffer (25 mM HEPES, 0.14 M NaCl, 5.7 mM KCI, 0.2 mM phenylmethylsulfonyl-fluoride, and 80 mg/ml soybean trypsin inhibitor, pH 7.5) supplemented with sucrose (0.25 M, final concentration). The tissue was homogenized on ice for 10 s with a Polytron homogenizer (Brinlmann, Westbury, N.Y.) at setting 5. The homogenate was centrifuged at 700 rpm for 10 min at 4° C. and the supernatants were recentrifuged at 10,000×g for 1 h. The pellet was resuspended in 15 ml of ice cold binding buffer, 25 mM HEPES, 0.14 M NaCl, 5.7 mM KCI, 0.2 mM phenylmethylsulfonylfluoride, and 80 mg/ml soybean trypsin inhibitor, pH 7.5, supplemented with 1% bovine serum albumin, and centrifuged for 1 h at 10,000×g. […] The supernatant was discarded, the tip of the vial cut and counted in a γ-counter. Nonspecific binding was determined in the presence of 2 μl/ml of unlabeled competitor (0.33 μM). […]
(§2) Tissue specificity was determined using crude membrane preparations of leg muscles, kidneys, liver. brain, and uterus (of estrogen primed mice). […] Binding was based on protein concentration determined by Lowry. […]

RLF receptor (uterus) = molecular target: T2, RLF receptor (uterus) (Mus musculus, UniProt Q91ZZ5); assay: Binding assay, mouse uterus crude membranes, hRLF tracer
T2 construct: brain, and uterus (of estrogen primed mice); from tissue; host or cells: uterus of estrogen-primed mice, crude membranes
Protocol: as §1, §2

[3] = test system: symphysis pubis of ovariectomized estrogen-primed female mice; assay: Mouse symphysis pubis (interpubic ligament) assay; format: in vivo
Protocol: Mouse interpubic ligament assays were performed essentially as described by Steinetz, et al., 1960, Endocrinology 67:102-115. Ovariectomized virgin female mice were printed with 5 μg estrogen cypionate in 100 μl sesame oil. Five days later the mice were injected subcutaneously with human relaxin, RLF, or mixtures of human relaxin and RLF in 100 μl of 0.1% benzopurpurin 4B. Specifically, groups of five animals received either human relaxin at a suboptimal dose or a mixture of 0.2 μg, 0.4 μg and 0.8 μg human relaxin and 5 μg of RLF as given in FIG. 8. For negative control 100 μl of 0.1% benzopurpurin 4B in water were injected. After 16 hours the mice were killed in an atmosphere of CO2, the symphysis pubis dissected free, and the distance between the interpubic bones measured with a dissecting microscope fitted with transilluminating fiber optics.

[4] = test system: mouse brain relaxin receptor; assay: Relaxin-binding assay, mouse brain crude membranes, porcine relaxin tracer
Protocol: Relaxin-binding assays were performed as described in Yang, et al., 1992, Endocrinology 130:179-185 and Büllesbach, et al., 1994, Endocrine. 2:1115-1120, using crude membrane preparations of mouse tissue. Mouse brains of 2 mice were collected into 15 ml of chilled buffer (25 mM HEPES, 0.14 M NaCl, 5.7 mM KCI, 0.2 mM phenylmethylsulfonyl-fluoride, and 80 mg/ml soybean trypsin inhibitor, pH 7.5) supplemented with sucrose (0.25 M, final concentration). The tissue was homogenized on ice for 10 s with a Polytron homogenizer (Brinlmann, Westbury, N.Y.) at setting 5. The homogenate was centrifuged at 700 rpm for 10 min at 4° C. and the supernatants were recentrifuged at 10,000×g for 1 h. The pellet was resuspended in 15 ml of ice cold binding buffer, 25 mM HEPES, 0.14 M NaCl, 5.7 mM KCI, 0.2 mM phenylmethylsulfonylfluoride, and 80 mg/ml soybean trypsin inhibitor, pH 7.5, supplemented with 1% bovine serum albumin, and centrifuged for 1 h at 10,000×g. The crude membrane preparation was suspended in 1 ml of binding buffer and 40 μl was used per assay. The assay was performed using 40 μl of tracer (about 100,000 cpm of porcine relaxin tracer=150 pM) and 20 μl of relaxin at various concentrations. The assay was incubated for 1 h at room temperature, and the suspension diluted with 1 ml of wash buffer (25 mM HEPES, 0.14 M NaCl, 5.7 mM KCI, 1% bovine serum albumin, 0.01% NaN3) and centrifuged in Eppendorf centrifuge at 14,000 rpm for 10 min. The supernatant was discarded, the tip of the vial cut and counted in a γ-counter. Nonspecific binding was determined in the presence of 2 μl/ml of unlabeled competitor (0.33 μM). In a typical experiment the specific binding was between 25% and 40% of the total binding.

T2 sequence (Q91ZZ5 whole entry): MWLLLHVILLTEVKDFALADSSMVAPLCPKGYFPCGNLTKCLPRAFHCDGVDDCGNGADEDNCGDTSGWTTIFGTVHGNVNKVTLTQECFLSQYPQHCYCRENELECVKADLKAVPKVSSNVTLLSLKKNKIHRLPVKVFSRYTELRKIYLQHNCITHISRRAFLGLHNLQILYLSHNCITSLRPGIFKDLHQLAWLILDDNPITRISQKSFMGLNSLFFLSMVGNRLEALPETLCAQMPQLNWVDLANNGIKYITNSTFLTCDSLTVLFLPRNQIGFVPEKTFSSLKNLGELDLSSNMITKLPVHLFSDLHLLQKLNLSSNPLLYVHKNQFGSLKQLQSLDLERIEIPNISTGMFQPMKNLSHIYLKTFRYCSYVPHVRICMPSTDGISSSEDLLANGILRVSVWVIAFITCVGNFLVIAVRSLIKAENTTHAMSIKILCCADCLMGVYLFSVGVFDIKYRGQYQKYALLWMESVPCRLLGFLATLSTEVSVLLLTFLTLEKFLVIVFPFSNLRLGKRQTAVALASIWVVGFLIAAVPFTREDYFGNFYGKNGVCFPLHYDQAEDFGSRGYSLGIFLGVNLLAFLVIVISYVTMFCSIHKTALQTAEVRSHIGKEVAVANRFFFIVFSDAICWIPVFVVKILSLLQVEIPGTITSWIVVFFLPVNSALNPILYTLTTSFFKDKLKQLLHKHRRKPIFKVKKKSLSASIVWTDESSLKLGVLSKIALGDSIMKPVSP
T1 sequence (Q91ZZ5 whole entry): as above

RLF: synthesized human relaxin-like factor, two-chain peptide (A and B chain, SEQ ID NOS:3 and 4), three disulfide links (alpha AAATNPARYCCLSGCTQQDLLTLCPY; beta PTPEMREKLCGHHFVRALVRVCGGPRWSTEA; disulfide I:11-II:10; also: two further disulfide bonds, places not given here)
potency in maintaining sperm motility relative to relaxin (washed human sperm): as potent in maintaining sperm motility at both doses as was relaxin | effect on sperm motility compared to untreated controls (washed human sperm; 0-24 h): preserve the motility | stimulation of procollagenase expression ([1]; 1 ng/ml): 0 fold | stimulation of procollagenase expression ([1]; 10 ng/ml): 2.0 fold | stimulation of procollagenase expression ([1]; 100 ng/ml): 4.2 fold | decrease of TGF-β-stimulated collagen expression [2]: 17% | 50% Binding (RLF receptor (brain)): 0.3 ng | 50% Binding (RLF receptor (uterus)): 0.3 ng | effect on the activity of human relaxin in the mouse bioassay ([3]; 0.2, 0.4, 0.8 μg human relaxin with 5 μg RLF): significantly increased the activity of human relaxin | optimal RLF amount for relaxin enhancement ([3]; in the presence of 0.5 μg of human relaxin): 5 µg | effect of RLF on the relaxin effect at maximal dose ([3]; maximal dose of both): still augmented | symphyseal widening, RLF alone ([3]; subcutaneous, 16 hours): no effect; also recorded: does not cause symphyseal widening | crossreactivity with the brain relaxin receptor ([4]; mouse brain): moderate crossreactivity | excess that displaces 50% of the relaxin tracer ([4]; mouse brain relaxin receptor preparation): hundred-fold | 50% Binding ([4]; mouse brain, tracer pRLX): 200 ng
